Laboratory results reported in ChEMBL document CHEMBL3826968, “Glycine Transporter 1 Inhibitors and the Promise of a New Schizophrenia Therapy” (ACS Med Chem Lett, 2016).

Target: T1, Sodium- and chloride-dependent glycine transporter 1 (Homo sapiens, UniProt P48067)
T1 sequence (P48067 whole entry): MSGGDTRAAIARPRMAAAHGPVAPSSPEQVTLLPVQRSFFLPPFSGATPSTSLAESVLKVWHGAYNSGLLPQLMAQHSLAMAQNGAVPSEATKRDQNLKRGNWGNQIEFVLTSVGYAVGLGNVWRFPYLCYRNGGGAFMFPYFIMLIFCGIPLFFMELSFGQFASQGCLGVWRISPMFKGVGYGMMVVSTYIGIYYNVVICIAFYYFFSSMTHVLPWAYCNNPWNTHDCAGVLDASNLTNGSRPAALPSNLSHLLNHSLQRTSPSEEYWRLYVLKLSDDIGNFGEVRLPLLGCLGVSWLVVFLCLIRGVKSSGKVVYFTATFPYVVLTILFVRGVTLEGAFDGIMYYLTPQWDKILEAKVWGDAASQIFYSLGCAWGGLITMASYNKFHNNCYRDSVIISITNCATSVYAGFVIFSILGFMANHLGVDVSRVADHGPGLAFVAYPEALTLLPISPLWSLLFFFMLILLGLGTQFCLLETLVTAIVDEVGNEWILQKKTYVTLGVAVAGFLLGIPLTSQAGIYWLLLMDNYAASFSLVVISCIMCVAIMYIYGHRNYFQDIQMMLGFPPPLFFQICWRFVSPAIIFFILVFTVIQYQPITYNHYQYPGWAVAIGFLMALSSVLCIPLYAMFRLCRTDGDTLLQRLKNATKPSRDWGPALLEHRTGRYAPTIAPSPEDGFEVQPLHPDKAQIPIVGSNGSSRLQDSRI
Experiment: Displacement of [3H](R)-NPTS or [3H]N-methyl-SSR504734 from recombinant human glycine transporter type-1 isoform C expressed in CHO cell membrane incubated for 1 hr by liquid scintillation spectrometry
Assay type: cell membranes

| SMILES | Ki [µM] |
| --- | --- |
| Cn1cc(S(=O)(=O)N2CC(c3ccccc3)C(c3ccccn3)=N2)cn1 (stereo not drawn) | ≥ 10 |
| Cn1cnc(S(=O)(=O)N2CC(c3ccc(Cl)cc3)C(c3ccccc3)=N2)c1 (stereo not drawn) | ≤ 1 |
| Cn1cc(S(=O)(=O)N2CC(c3ccc(F)cc3)C(c3cccc(C(F)(F)F)c3)=N2)nn1 (stereo not drawn) | ≤ 10 |
